For series [1], the system named is patients with chronic intestinal pseudo-obstruction. The settings on record: prucalopride 2 mg, 12-week periods, cited from earlier work.
In series [2] the test system is Prp-SCA7-92Q transgenic mice. Briefly: Morphometric gut evaluation (HE histological score) in Prp-SCA7-92Q transgenic mice. The class given is in vivo. The settings on record: Prp-SCA7-92Q mice.
Experimental: After mice were sacrificed by CO2 inhalation, the small intestine and colon tissue were cut, fixed for 48 hours with 10% neutral buffered formalin. The paraffin sample was prepared by dehydration with a series of gradient alcohol solutions according to standard methods known in the field. Tissues were cut into 4 μm sections by rotary microtome and baked for 2 hours at 60° C. After (HE) hematoxylin-eosin (HE) images were obtained from each animal at 20× magnification for histological analyses by fully automatic digital pathology slide-system (KF BIO, KF-PRO-005, China) using K-viewer Imaging software (KF BiO, V1, China).
The presence of inflammation and ulcers was quantified using indicators (i.e. ulcers=% area with intestinal mucosal damage, inflammation=necrosis, bleeding) to which a score from 0 to 3 was associated. Inflammation and ulcers scoring were awarded after section evaluation and analysis.
In series [3] the test system is subjects with idiopathic Chronic Intestinal Pseudo-Obstruction (CIPO). The settings on record: in vivo. From the text: Visits where assessed at the beginning of the screening period (Visit 1), at the beginning and at the end of each period of treatment (Visit 2 to Visit 9) and at the end of the follow-up period (Visit 10).
PLA=matching placebo once daily for 4 weeks.
Gastrointestinal symptom severity (abdominal pain, bloating, nausea and vomiting) and bowel habit (weekly recall) were registered on Day −1 and weekly after randomization, during both treatment and washout periods, as appropriate according to the Schedule of Assessments using an e-diary until end of follow up period.
Subjects were instructed to take three capsules of medication orally, once daily at approximately the same time each morning, on an empty stomach, with water.
The Primary efficacy endpoints was to evaluate the change in weekly global gastrointestinal symptoms average index score (WGGSAIS) from start to the end of each treatment period.
The WGGSAIS was obtained by averaging the scores for each of the 4 symptoms assessed weekly: abdominal pain, bloating, nausea and vomiting, with lower scores representing better health. If at least 2 symptoms were assessed, the average score was calculated, otherwise, it was considered missing.
Change between the end of treatment and pre-treatment WGGSAIS value≤−1 point was computed and considered a “success” while changes >−1 were considered a “failure”. The proportion of subjects with a 1-point improvement in WGGSAIS is summarized by treatment sequence, period and timepoint (weekly evaluation by e Diary.
Considering the evaluable pairs, the proportions of pairs of observations with 1-point improvement in WGGSAIS is summarized by treatment and timepoint. […]
Considering the evaluable pairs, the number of pseudo-obstruction episodes occurring within each treatment period and number of pseudo-obstruction episodes occurring within wash-out/follow up was considered as categorical variables classified as 0, 1, 2 and >2 and are summarized by treatment.
The same descriptive analyses described above are repeated focusing on change from the end of each treatment period to the end of each week of washout period or follow-up period instead of the change between post-treatment and pre-treatment.

For series [4] the test system is unchanged.
Experimental: Safety was assessed at each visit measuring and evaluating changes from the baseline of the following parameters: • Vital signs (including blood pressure, pulse, temperature). • Physical examination also including height and weight. • Routine laboratory parameters (hematocrit, hemoglobin, red blood cell count, white blood cell count with differential count and platelet count for hematology; glycaemia, total cholesterol, triglycerides, serum creatinine, urea or blood urea nitrogen [BUN], sodium, potassium, chloride, AST, ALT, Gamma-GT, alkaline phosphatase, total and fractioned bilirubin (direct and indirect), erythrocyte sedimentation rate, PT (or INR), aPTT for biochemistry; specific gravity, pH, protein, glucose, ketones, hemoglobin, nitrite, bilirubin, urobilinogen and microscopic examination for urinalysis). • Triplicate ECG • Adverse events (AEs). • Withdrawal from study due to AEs.
Adverse events starting on or after the first intake of investigational product were considered treatment-emergent AEs (TEAEs). Verbatim terms for AEs were coded using the most current version of Medical Dictionary for Regulatory Activities (MedDRA) coding. […]
The subject of the next series is Prp-SCA7-92Q mice. Nature of the series: Body weight and tolerability in Prp-SCA7-92Q mice. The settings on record: 1 and 3 mg/kg, 5 weeks of treatment. The class given is in vivo. From the text: A normal control (NC) group of untreated wild-type mice was also examined. No significant differences were noticed between groups (FIG. 13).

Values joined by “and” are separate entries in the source; they are usually repeats but may differ in a detail not shown here. Equal values may be shown once. Marks after values point to notes of the source that are not given here.

Turning to `COCCCN1CCC(NC(=O)c2cc(Cl)c(N)c3c2OCC3)CC1` [prucalopride], in series [1], the “stool frequency and consistency” value is on record as “did not affect”. In series [1] (four completers), the “patients with significantly improved bloating” value is given as “four”, the “patients with significantly improved nausea” value is listed as “two”, the “patients with significantly improved pain” value is recorded as “three of four patients” and the “patients with significantly improved vomiting” value is on record as “one”.
In the case of `CC(C)n1c(=O)c(C(=O)N[C@H]2C[C@H]3CC[C@@H](C2)N3C[C@@H](O)CN(C)S(C)(=O)=O)cc2ccccc21` [velusetrag, 1-isopropyl-2-oxo-1,2-dihydroquinoline-3-carboxylic acid {(1S,3R,5R)-8-[(R)-2-hydroxy-3-(methanesulfonyl-methyl-amino)propyl]-8-azabicyclo[3.2.1]oct-3-yl}amide], in series [2] (1 mg/kg po once daily 5 weeks), the “Inflammation (count of necrosis) score, DSI” value is 1.6 ± 0.1; the “Inflammation (count of necrosis) score, Proximal Colon” value stood at 1.5 ± 0.1; the “Total score, DSI” value worked out at 2.4 ± 0.1; the “Total score, Proximal Colon” value was found to be 2.4 ± 0.1. Besides, in series [2] (1 mg/kg po once daily 5 weeks), the “Ulcers (mucosal damage) score, DSI” value is reported as 0.8 ± 0.1^∘ and the “Ulcers (mucosal damage) score, Proximal Colon” value stood at 0.9 ± 0.05. Also, in series [2] (3 mg/kg po once daily 5 weeks), the “Inflammation (count of necrosis) score, DSI” value was 1.2 ± 0.1*^∘∘∘; the “Inflammation (count of necrosis) score, Proximal Colon” value is recorded as 1.1 ± 0.1*^∘∘∘; the “Total score, DSI” value is recorded as 1.8 ± 0.1**^∘; the “Total score, Proximal Colon” value was 1.5 ± 0.1*^∘∘∘. In series [2] (3 mg/kg po once daily 5 weeks), the “Ulcers (mucosal damage) score, DSI” value is on record as 0.6 ± 0.1^∘ and the “Ulcers (mucosal damage) score, Proximal Colon” value is given as 0.4 ± 0.01^∘∘. Besides, in series [3], the “WGGSAIS total score, mean change from end of treatment at the end of wash-out” value is 0.54±0.736; the “WGGSAIS, mean” value is 1.707 and 1.608 and 1.367 and 1.458; the “WGGSAIS, mean change from pre-treatment to end of treatment” value is listed as −0.529±0.7956; the “WGGSAIS, mean difference between treatments (velusetrag minus placebo)” value is given as −0.342+0.9343. Further, the “total TEAEs classified as velusetrag emergent” value in series [4] (Safety Set (placebo emergent 38)) is reported as 29. For the same compound, the “subjects with TEAEs classified as velusetrag emergent, %” value in series [4] (Safety Set, 17 subjects (placebo emergent 58.82%)) was found to be 41.18%. The “tolerability: body weight and lethality throughout treatment” value in the series on Prp-SCA7-92Q mice is “no reduction in body weight and lethality was observed”.
